Entries after “also recorded” stand apart in the source; their conditions may differ.
What follows are compounds tested against T1, Naegleria Tet1 (NgTet1) (Naegleria gruberi, UniProt D2W6T1) (assay: FP competitive binding assay). Details: 2.5 and 1.25 mM.
T1 sequence (D2W6T1 1-321): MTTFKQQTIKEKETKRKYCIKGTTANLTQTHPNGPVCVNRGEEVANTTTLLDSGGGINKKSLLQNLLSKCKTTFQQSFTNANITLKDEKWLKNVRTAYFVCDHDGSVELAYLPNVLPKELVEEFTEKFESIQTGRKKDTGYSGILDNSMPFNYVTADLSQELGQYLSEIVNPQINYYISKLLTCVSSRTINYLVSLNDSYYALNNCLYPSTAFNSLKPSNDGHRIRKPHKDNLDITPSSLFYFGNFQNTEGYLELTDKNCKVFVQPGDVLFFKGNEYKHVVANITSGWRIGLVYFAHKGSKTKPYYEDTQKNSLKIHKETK

| inhibition at the highest concentrations tested | Structure (SMILES) |
| --- | --- |
| very slight inhibition | O=C(O)CC[C@@H](O)C(=O)O [compound 7, D-2-hydroxyglutaric acid] |

Same assay, conditions: at the concentrations tested (up to 5.0 mM for 8 and 9)

| Structure (SMILES) | competitive displacement of 3 from NgTet1 |
| --- | --- |
| O=C(O)CCC(=O)C(=O)O [compound 4, α-ketoglutarate] | showed the ability to competitively displace 3 |
| O=C(O)CNC(=O)C(=O)O [compound 5, N-oxalyl glycine] | showed the ability to competitively displace 3 |
| O=C(O)c1ccnc(C(=O)O)c1 [compound 6, pyridine 2,4-dicarboxylic acid] | showed the ability to competitively displace 3 |
| Cc1cn([C@H]2C[C@H](O)[C@@H](CO)O2)c(=O)nc1N [compound 8, 5-methyl-2'-deoxycytidine] | Neither 5mC (8) nor 5hmC (9) showed competitive binding; also recorded: unable to competitively displace 3 |
| Nc1nc(=O)n([C@H]2C[C@H](O)[C@@H](CO)O2)cc1CO [compound 9, 2'-deoxy-5-(hydroxymethyl)cytidine] | Neither 5mC (8) nor 5hmC (9) showed competitive binding; also recorded: unable to competitively displace 3 |
